Residues, ends and D or L forms follow the SMILES beside them.
How the values were obtained:
anti-EBNA antibodies = assay: ELISA with polypeptide as solid phase antigen, anti-polypeptide activity of sera (OD405); type: binding, human; settings: for OD405 × 10^3 obtained with Patient Antibodies to peptide: serum 1:20
Procedure: Briefly, microtiter wells (Costar, #3590, Cambridge, MA) were typically coated with individual polypeptides as antigens by adding 100 microliters (ul) of BBS [10 millimoler (mM) sodium borate (pH 8.3), 150 mM NaCl] containing polypeptide at a concentration of 10 micrograms per milliliter (ug/ml). Contact between the wells and antigen-containing solution was maintained for a predetermined time, typically 15 minutes, and at 20 degrees C., to form an antigen-coated solid phase. The solid and liquid phases were separated and the wells were washed three times with BBS.
Non-specific binding sites were blocked by admixing 200 microliters of 1% bovine serum albumin (BSA) in each well to form another solid/liquid phase admixture, and maintaining that solid/liquid phase admixture for 30 minutes, at 20 degrees C. The phases were separated and excess, unbound BSA was removed by washing three times with BBS.
The antibodies in human sera that immunoreacted with an adsored polypeptide were detected using an indicating means comprising alkaline phosphatase-conjugated goat anti-human Ig antibody (Tago, Burlington, Calif.). The antibodies in rabbit sera that immunoreacted with an adsorbed polypeptide were detected using an indicating means comprising alkaline phosphatase-conjugated goat anti-rabbit Ig antibody (Kirkegard & Perry Laboratories, Inc., Gaithersburg, MD). In either instance, 100 microliters of the indicating antibody diluted 1:300 in BBS were added per well to form a further solid/liquid phase composition. This solid-liquid phase composition was maintained for a predetermined time, one hour, for the formation of a reaction product between the human antibodies bound to the solid phase and the indicating means, and at 20 degrees C. The phases were separated, and the solid phase was washed 3 times with BBS.
Alkaline phosphatase-conjugated antibody bound to polypeptide specific antibody was detected by spectrophotometrically measuring the enzymatic hydrolysis of p-nitrophenyl phosphate to p-nitrophenol. Briefly, 100 microliters of p-nitrophenyl phosphate [1 milligram per milliliter in 2 mM MgCl 2, (pH 9.8), 50 mM sodium carbonate] were added to each well. The enzymatic reaction was allowed to proceed 1 hour and then the optical density at 405 nm was determined in a [sequence] spectrophotometer available from Flow Laboratories, Inglewood, Calif.

[1] = Circular dichroism spectroscopy; type: physicochemical; settings: 1 mg/ml in phosphate buffered saline
Procedure: The conformational properties of the polypeptides were investigated to elucidate any secondary structure that might be necessary for polypeptide immunoreaction with human anti-EBNA antibodies. The polypeptides were dissolved at a concentration of 1 mg/ml in phosphate-buffered saline (PBS). Spectra were taken using 1 ml samples in a Cary 61 spectropolarimeter (Cary Instruments, Applied Physics Corp., Monrovia, Calif.) interfaced and automated with a Digital Equipment Corporation 11/02 computer (Digital Equipment Corporation, Maynard, Mass.).

EBNA = assay: Immunoblot of WI-L2 whole cell extracts with rabbit antipeptide antisera, blocking by polypeptide; type: binding, Epstein-Barr virus
Procedure: Exemplary receptor molecules containing antibody combining sites of this invention raised in rabbits to the polypeptides shown in Table 1 were studied using the immunoblotting procedures of Towbin, et. al., Proc. Natl. Acad. Sci., U.S.A., 76:4350-4354 (1979) and Billings, et. al., Proc. Natl. Acad. Sci., U.S.A., 80:7104-7108 (1983). Further details are provided in the Materials and Methods section (III).
Extracts of EBNA producing and non-producing (control) cells were prepared to determine if receptor molecules of this invention were useful for diagnosing EBNA expression. Cells from cultures described hereinabove were washed in phosphate-buffered saline (PBS; 150 mM NaCl, 10 mM sodium phosphate, pH 7.4) containing 0.2 mM phenylmethylsulfonyl fluoride, swollen for 5 minutes in reticulocyte standard buffer (RSB; 10 mM NaCl, 10 mM Tris-HCl, pH 7.4, 1.5 mM MgCl2, 0.2 mM phenylmethylsulfonyl fluoride), and lysed by sonication in 3-5 volumes of RBS adjusted to 0.2-0.35 molar (M) NaCl. After 30 minutes on ice, the sonicate was centrifuged at 10,000×g for 15 minutes to remove cellular debris.
Cell extracts obtained above were assayed for EBNA using human sera known to contain anti-EBNA antibodies or exemplary receptor molecules of this invention. The extracts were either concentrated by precipitation with 2 volumes of ethanol at -20 degrees C. for about 18 hours, and were then dissolved in sample buffer [SB; 10% glycerol, 2% 2-mercaptoethanol, 1% sodium dodecyl sulfate (SDS), 0.002% bromphenol blue, 40 mM Tris-HCl (pH 7.4)] or diluted 1:6 in sample buffer for SDS-polyacrylamide gel electrophoresis (SDS-PAGE). 7.5% Polyacrylamide gels were cast and run according to the procedure of Laemmli, Nature, […] (1970), applying 50 to 200 micrograms of total protein per lane. […]
Anti-peptide antibodies bound to EBNA protein were detected by reacting the blots with an indicating means. […]

[2] = test system: rabbit anti-polypeptide antibody to polypeptide P62; assay: Competition ELISA with rabbit anti-polypeptide P62 antibody on solid phase P62; type: binding; settings: antibody first incubated with competing polypeptide
Procedure: Anti-peptide antibody binding and inhibition studies were carried out by an enzyme-linked immunosorbent assay (ELISA) as described below.
Contact between the wells and antigen-containing solution was maintained for a predetermined time, typically 15 minutes, and at 20 degrees C., to form an antigen-coated solid phase. The solid and liquid phases were separated and the wells were washed three times with BBS.
Rabbit and human sera (body sample aliquots) were assayed for anti-polypeptide activity by adding 100 microliters of a serum diluted 1:20 in BBS per well to form a solid/liquid phase composition. Contact between the diluted sera and the antigen-coated solid phase was maintained for a predetermined time such as 1 hour, and at 20 degrees C., for an immunoreactant to form. The solid and liquid phases were separated, and the solid phase; i.e., antigen-coated, immunoreactant-containing wells, was then washed three times with BBS.

## C[C@H](NC(=O)CNC(=O)CNC(=O)[C@H](C)NC(=O)CNC(=O)[C@H](C)NC(=O)CNC(=O)CNC(=O)CN)C(=O)NCC(=O)N[C@@H](C)C(=O)NCC(=O)NCC(=O)NCC(=O)NCC(=O)N[C@@H](CCCNC(=N)N)C(=O)O [Polypeptide P60, H--Gly--Gly--Gly--Ala--Gly--Ala--Gly--Gly--Ala--Gly--Ala--Gly--Gly--Gly--Gly--Arg--OH] (H-GGGAGAGGAGAGGGGR-OH)
anti-EBNA antibodies; 27 EBV non-immune (VCA-) donors
  Reactivity of sera of EBV non-immune donors to polypeptide: None of the sera displayed significant reactivity
anti-EBNA antibodies; 91 ACIF anti-EBNA positive sera, 1:20 dilution
  Number of anti-EBNA positive sera positive against (bound to) polypeptide: 91
anti-EBNA antibodies; Progressive Systemic Schlerosis patients
  Titer of PSS patients versus normals: relatively higher average titer
anti-EBNA antibodies; clinically normal VCA+ individuals, two dilutions
  Reaction of VCA+ sera with polypeptide: all of the VCA^+ individuals were positive
anti-EBNA antibodies; panel of 19 VCA- sera
  Reaction of VCA- sera with polypeptide: None of the VCA^- sera were found to react positively
anti-EBNA antibodies; MV post-mononucleosis
  OD405 × 10^3 obtained with Patient Antibodies to peptide: 162 OD405 × 10^3
anti-EBNA antibodies; MV pre-mononucleosis
  OD405 × 10^3 obtained with Patient Antibodies to peptide: 72 OD405 × 10^3
anti-EBNA antibodies; SB post-mononucleosis
  OD405 × 10^3 obtained with Patient Antibodies to peptide: 115 OD405 × 10^3
anti-EBNA antibodies; SB pre-mononucleosis
  OD405 × 10^3 obtained with Patient Antibodies to peptide: 51 OD405 × 10^3
anti-EBNA antibodies; VCA+ Normal 1
  OD405 × 10^3 obtained with Patient Antibodies to peptide: 154 OD405 × 10^3
anti-EBNA antibodies; VCA+ Normal 2
  OD405 × 10^3 obtained with Patient Antibodies to peptide: 145 OD405 × 10^3
anti-EBNA antibodies; VCA- Normals (n = 27), average ± one standard deviation
  OD405 × 10^3 obtained with Patient Antibodies to peptide: 45 ± 18 OD405 × 10^3
[1]
  Conformation by circular dichroism spectrum: very similar spectra
EBNA; serum 1:10, 40 ug/ml polypeptide P60, one hour
  Immunoreactivity of anti-P62 serum with the EBNA band after preincubation with polypeptide: inhibited
EBNA; serum 1:50, 40 ug/ml polypeptide, one hour
  Recognition of EBNA by anti-P60 serum after preincubation with polypeptide: inhibited
[2]
  Inhibition of binding of anti-polypeptide P62 to polypeptide P62 in the solid phase: 81%

Source: US5122448A, “Assay of anti-Epstein-Barr virus nuclear antigen antibodies with synthetic polypeptides” (Scripps Clinic and Research Foundation, priority 1990, dated 1992)
